Results reported in patent publication US10406129B2 (priority 2015, dated 2019).
Entries after “also recorded” stand apart in the source; their conditions may differ. Read-outs that look alike come from different tables or passages of the source.

Experiments:
platelets [1] = conditions: 4 mg/kg/day; hypercholesterolemic rat model; cited from earlier work
postmenopausal women = assay: Microvascular function by peripheral arterial tonometry (Endo-PAT2000) after intake of 90 mg ResArgin or trans-res; format: in vivo, human; conditions: combined data
[2] = Plasma resveratrol concentrations after intake (HPLC), one hour study; format: in vivo, human; conditions: median (interquartile range), n=30
Method: Participants were randomized by block design to consumed trans-res or ResArgin™ in random order. Randomization was performed by the study coordinator following a predetermined plan formulated via a web-based random number generator. […] The study included two separate investigations: a one hour study and a two hour study (FIG. 6). During each study visit, which took place after an overnight fast, a baseline measurement of PAT and a blood sample were collected, followed by consumption of the assigned treatment. During the one hour study, PAT measurements and blood samples were collected thirty and […] minutes after the capsules were consumed. During the two hour study, a PAT measurement and blood sample were taken two hours after the capsules were consumed.
Briefly, plasma was treated with acidified methanol [0.5% (v/v) of acetic acid in methanol; precooled to −20° C.] containing an appropriate recovery standard. The mixture was stored at −80 C for 12 hours to allow for cryo-assisted protein precipitation, and then centrifuged for 15 min at 16,500×g. The supernatant fraction was transferred and its volume reduced to less than 50 μL by removing the solvents under vacuum with a […] SpeedVac Concentrator (Thermo Electron Corporation, Milford, Mass.). […]

platelets [3] = assay: Platelet function by whole blood/optical lumi-aggregometer after intake; format: in vivo, human
Method: Platelet reactivity during clinical screening was assessed by a PFA-100 (Siemens, Deerfield, Ill.), which measures platelet function by simulating arterial hemostasis under blood flow shear stress. During the intervention, platelet function was assessed by a whole blood/optical lumi-aggregometer (Chrono-log Model 700, Havertown, Pa.). Briefly, platelet aggregation was measured via electrical impedence (or electrical resistance), whereas lumi-aggregometry was used to examine aggregation together with adenosine triphosphate (hereafter, “ATP”) release, which is determined with firefly luciferin-luciferase system. […] One of the following agonists was used to stimulate platelets: collagen (1 μL and 5 μL), AA (10 μL) or ADP (10 μL). ATP release was measured only when platelets were activated with ADP. The aggregation was measured over a period of six minutes, following the addition of an agonist.

[4] = tested on: endothelial nitric oxide synthase (eNOS); conditions: 1 μM; human umbilical vein endothelial cells; cited from earlier work
platelets [5] = conditions: in vitro; 10-1,000 μM; dose dependent; cited from earlier work
platelets [6] = conditions: 10 mg daily for three months; stable coronary artery disease patients; cited from earlier work
[7] = platelets stimulated with 10 μL arachidonic acid, one hour after intake

Oc1ccc(C=Cc2cc(O)cc(O)c2)cc1 [Resveratrol, 3,5,4′-trihydroxystilbene]
ADP-induced platelet aggregation (platelets [1]): inhibited

Oc1ccc(/C=C/c2cc(O)cc(O)c2)cc1 [trans-res, Trans-resveratrol]
Change in FRHI compared to baseline (postmenopausal women; one and two hours post-consumption): No differences; also recorded: no changes
Significant improvement in RHI compared to baseline (postmenopausal women; one hour after intake): not observed
Plasma resveratrol concentration ([2]; 30 minutes after intake of 90 mg): 2.04 (0.82, 2.54)
Plasma resveratrol concentration ([2]; 60 minutes after intake of 90 mg): 2.65 (1.69, 3.44)
Slope, change from baseline (platelets [3]; lumi-aggregometry with 10 μL ADP, one-hour post consumption): significant decrease
Slope, change from baseline (platelets [3]; platelets stimulated with 1 μL collagen, one hour after consumption): not
Lag time, change from baseline (platelets [3]; platelets stimulated with 1 μL collagen, one-hour post consumption): significant increase
Area under the curve (AUC) of aggregation, change from baseline (platelets [3]; [7]): no changes
Maximum aggregation, change from baseline (platelets [3]; [7]): no changes
Platelet function, change from baseline (platelets [3]; stimulation with 5 μL collagen): no significant changes
Expression of eNOS [4]: up-regulated
Platelet aggregation (platelets [5]): significantly reduced
Platelet aggregation (platelets [6]): significantly reduced
